{"source": "patent US9851346B2", "about": "“Chemical sensitivity screening test” (BRYSON PATENTS INC., priority 2014, dated 2017)", "key": {"[1]": {"assay": "Strip test screening of various compounds (Example 17, FIGS. 10-11; strip composition not stated)", "description": "Now referring to FIG. 10, the pain relief medication—ASA, ibuprofen and acetaminophen were screened in the presence of alcohol (Ethanol)—50 ml water and 50 ml of 40% vol/vol ethanol.\nNow referring to FIG. 11, various sweetening agents or table salts were dissolved in 75 ml of filtered water and exposed to UV lamp for 3 minutes or 5 minutes."}, "[2]": {"assay": "Strip test, Screening Composition 2 (Examples 6-10): fluorescence under UV after contact with dissolved specimen", "conditions": "FIGS. 3-4; observed under UV light, 3 to 5 minutes", "source_text": "(§1) Prior to testing, the specimen of substance to be tested is placed directly into a solvent. Preferably, the solvent is a solvent such as distilled or filtered water. If the specimen is in tablet form, it should be crushed into a powder and then added to the solvent. If the specimen is in another form, it is preferably disaggregated into small pieces. The powder or pieces are then left to sit in the solvent until mixed in and/or dissolved for a period ranging from a few seconds to minutes, hours or even days before it may be tested with the composition and/or strip test of the present invention. Preferably, the contact with the solvent is at least eight hours. A liquid or gel form can be put directly into the solvent. […]\nFor testing, the strip test prepared above is placed under UV light in a room with reduced lighting to allow the reaction to be observed, and is contacted with the specimen of substance prepared above. […] In the presence of a predicted adverse reaction of the substance, the strip test will show the absence of fluorescence or the fluorescence will decrease, or even completely disappear over the short period of time (about 3 to 5 minutes). […]\nSee FIGS. 3 and 4 for comparisons of adverse and non-adverse reaction results. The degree by which fluorescence disappears after initial exposure to the substance may be used to quantify the relative adverseness of the substance. […]"}, "[3]": {"assay": "Strip test, Screening Composition 3 with Activator 1 / Activator 2 (Examples 11-16)", "conditions": "FIGS. 5-8; 3 to 5 minutes under UV light", "description": "Once the urine has been provided, it needs to be cooled to a temperature of 18.3° C. This is the best temperature for testing in this case. When preparing for the test, the urine should be divided into two different groups. The first group is to add Activator 1 and observe the reaction. The second group is to add Activator 2 and observe the reaction.\nTo perform the Activator 1 test, take approximately 20 ml of urine and add 5 ml of the activator solution. Allow this to sit for 20 minutes under ultraviolet light. Once the 20 minutes has passed, place the strip test under ultraviolet light in a darkened room and apply approximately 1 ml of urine/Activator 1 solution onto the strip test. After the urine/Activator 1 solution has been applied to the strip test, one simply observes the reaction. […]\nSee FIGS. 5 to 8 for comparisons of presence and absence of the contaminant biomarkers (protein crystals) reaction results. The degree by which fluorescence disappears after initial exposure of urine/activator to the strip test may be used to quantify the relative presence of the factor in the urine. For example, a slow disappearance of fluorescence represents less presence of the pesticide biomarker than a urine/activator sample for which the fluorescence disappears rapidly over the course of the testing procedure."}, "[4]": {"assay": "Strip test, Screening Composition 1 (Examples 1-5): fluorescence under UV after contact with dissolved specimen", "conditions": "FIG. 9; increasing amounts dissolved in 50 ml of filtered water; strip test from Example 1", "source_text": "as §1, with “of substance is placed” for “of substance to be tested is placed”, “a powder form and then” for “a powder and then”, “is in other form, it” for “is in another form, it”, “disaggregated into smaller pieces. The” for “disaggregated into small pieces. The”, “solvent until dissolved, for a” for “solvent until mixed in and/or dissolved for a”, “a few second to minutes,” for “a few seconds to minutes,”\nThe contacted test strip is then immediately observed under UV light in a dark room. In the presence of a predicted adverse reaction of the substance, the strip test will show the absence of fluorescence, or the fluorescence will decrease, or even completely disappear over a short period of time (about 90 seconds). […] According to an embodiment, the degree by which fluorescence disappears after initial exposure to the substance may be used to quantify the relative adverseness of the substance. For example, a slow disappearance of fluorescence represents a less adverse substance than a substance for which the fluorescence disappears rapidly over the course of the testing procedure. […]"}}}
{"smiles": "CC(=O)Nc1ccc(O)cc1", "note": "[acetaminophen]", "values": [{"measurement": "Effect of the medication on adverseness in the presence of alcohol (strip test)", "setting": "[1]", "value": "diminishes adverseness to varying degrees"}]}
{"smiles": "[Cl-].[Na+]", "note": "[Sodium chloride (iodized), Sodium chloride]", "values": [{"measurement": "Adverseness / fluorescence indicated by strip test", "setting": "[1]; FIG. 11, dissolved in 75 ml of filtered water, exposed to UV lamp for 3 minutes or 5 minutes", "value": "appears to not be adverse"}]}
{"smiles": "CCOc1nc2cccc(C(=O)O)c2n1Cc1ccc(-c2ccccc2-c2nnn[nH]2)cc1", "note": "[candesartan 8 mg, candesartan]", "values": [{"measurement": "Strip test appearance (bright yellow glow = does not cause an adverse effect; dark color = may cause an adverse effect)", "setting": "[2]", "value": "glows a bright yellow color"}, {"measurement": "Strip test appearance (bright yellow glow = does not cause an adverse effect; dark color = may cause an adverse effect)", "setting": "[3]", "value": "glows a bright yellow color"}]}
{"smiles": "CC(C)Cc1ccc(C(C)C(=O)O)cc1", "note": "(stereo not shown) [ibuprofen]", "values": [{"measurement": "Adverseness indicated by strip test", "setting": "[4]", "value": "is not"}, {"measurement": "Effect of the medication on adverseness in the presence of alcohol (strip test)", "setting": "[1]", "value": "diminishes adverseness to varying degrees"}]}
{"smiles": "OC[C@H]1O[C@H](O[C@]2(CCl)O[C@H](CCl)[C@@H](O)[C@@H]2O)[C@H](O)[C@@H](O)[C@H]1Cl", "note": "[Sucralose]", "values": [{"measurement": "Adverseness / fluorescence indicated by strip test, 5 minute exposure", "setting": "[1]", "value": "depleted fluorescence, indicative of a mild adverse effect"}, {"measurement": "Adverseness indicated by strip test, initially", "setting": "[1]", "value": "initially not adverse"}]}
{"smiles": "CC(=O)Oc1ccccc1C(=O)O", "note": "[ASA]", "values": [{"measurement": "Adverseness indicated by strip test", "setting": "[4]", "value": "appears to be adverse"}, {"measurement": "Effect of the medication on adverseness in the presence of alcohol (strip test)", "setting": "[1]", "value": "diminishes adverseness to varying degrees"}]}
{"smiles": "CCO", "note": "[Alcohol, Ethanol]", "values": [{"measurement": "Adverseness indicated by strip test, alcohol alone", "setting": "[1]", "value": "appears to be adverse"}]}
{"smiles": "C[C@H](N)Cc1ccccc1", "note": "[Dextroamphetamine XR 5 mg, Dextroamphetamine]", "values": [{"measurement": "Strip test appearance (bright yellow glow = does not cause an adverse effect; dark color = may cause an adverse effect)", "setting": "[2]", "value": "turns a dark color"}, {"measurement": "Strip test appearance (bright yellow glow = does not cause an adverse effect; dark color = may cause an adverse effect)", "setting": "[3]", "value": "turns a dark color"}]}
